Results on one molecule are retold here after patent US10100077B2, “6-aryl-9-glycosylpurines and use thereof” (UNIVERZITA PALACKEHO V OLOMOUCI, priority 2014, dated 2018).

Broadly, the IC50 is the concentration at which inhibition is half-maximal. Low readings indicate greater potency in that assay, high ones weaker potency in that assay. By GI50 is commonly meant the concentration at which growth is held to half of that of the control.

The test system of series [1] is skin fibroblasts BJ and keratinocytes HaCaT. Description: SRB in vitro toxicity test. Particulars: Homo sapiens, 72 hour treatment, maximal concentration 50 microM. Format: cell-based. The method in brief: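 BJ fibroblasts and HaCaT keratinocytes were exposed for 72 h to sixfold-diluted compound (maximum 50 μM), with DMSO as vehicle. Cells were TCA-fixed and stained with SRB, and absorbance was read at 564 nm. IC50 was calculated from dose-response curves.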

A short description of series [2]: Calcein AM cytotoxicity assay, K562. Format: cell-based, human. The note with it: human, K562 erythroleukemia cells. The gist of the method: (§1)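 K562, MCF-7 and NIH3T3 cells (10^4/well) in DMEM with 10% FBS were preincubated for 24 hrs, then given six 4-fold dilutions, usually from 166.7 μM, in duplicate for 72 hrs at 37° C. Viability was read by Calcein AM fluorescence after 1 hour, with GI50 from survival relative to control.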

A short description of series [3]: Calcein AM cytotoxicity assay, NIH3T3. It counts as cell-based, mouse. Particulars: mouse, NIH3T3 fibroblasts. The method in brief:
as §1

Series [4] has as its system Normal human dermal fibroblasts (NHDF). In words: In vitro UVA photoprotection test (neutral red). Format: cell-based. Particulars: UVA 7.5 J/cm^2, 0.9; 1.8; 3.9 a 7.8 μmol/l, 60 minutes pre-incubation. The text has this: Normal human dermal fibroblasts (NHDF) were used as an in vitro model. Cells were isolated from tissue specimens obtained from healthy patients undergoing plastic surgery at the Department of Plastic and Aesthetic Surgery (University Hospital Olomouc). The use of skin tissue was in accordance with the Ethics Committee of the University Hospital and Faculty of Medicine and Dentistry, Palacký University, Olomouc and all patients signed written informed consent. Fibroblasts were used between the 2nd and 4th passage. For all experiments the fibroblasts were seeded onto 96-well plates at a density of 0.8×10^5 cells/ml (0.2 ml per well) of cultivation medium (DMEM supplemented with foetal calf serum (10%, v/v), penicillin […] and streptomycin (100 U/ml)).
Test compounds included 6-(3-methoxybenzylamino)-9-β-D-arabinofuranosylpurine. […] Intensity of UVA or UVB radiation was evaluated before each irradiation by UVA- or UVB-meter. […] After 24 hours (37° C., 5% CO2) cell damage was evaluated by neutral red (NR) incorporation into viable cells. […] After 5 minutes of intensive shaking absorbance was measured at 540 nm. […] Photoprotective effect was evaluated by comparison of experimental data (absorbance) of test compounds with a positive control and a negative control (according to the following equation: […]

`COc1cccc(CNc2ncnc3c2ncn3[C@@H]2O[C@H](CO)[C@@H](O)[C@@H]2O)c1` [6-(3-methoxybenzylamino)-9-β-D-arabinofuranosylpurine]: the IC50 in series [1] is over 50 µM. The 50% growth inhibitory concentration (GI50) at 72 h in series [2] and in series [3] was over 100 µM each time. In addition, the “viability after UVA vs DMSO control (photoprotection)” value in series [4] is listed as “higher viability”.
